# US4948791A, “Novel Cytotoxic cyclic depsipeptides from the tunicate trididemnum solidum” (priority 1989, dated 1990)
# Numbered stars: 1 amine (or outer) side, 2 acyl side, 3 side chain; on linkers, the order of the positions; unused ones are H or OH. Bridge positions count the residues as written; N and C are the ends. Square brackets hold non-standard residues; d marks the D form. Peptide text beside a SMILES is read from it. X1 = CC[C@H](C)[C@@H](N[*:1])[C@@H](O)CC(=O)O[C@H](C(=O)[C@H](C)C(=O)[*:2])C(C)C; NMeY = CN[C@@H](Cc1ccc(O)cc1)C(=O)O; dNMeL = CN[C@H](CC(C)C)C(=O)O
# Tested on: L1210 mouse leukemia cells
# Assay: Three-day L1210 cell growth inhibition assay (at 37° C.)
# Type: cell-based
# Conditions: for growth of L1210 mouse leukemia cells in vitro: statement in words
# Experimental: Three-day L1210 cell growth inhibition assay (at 37° C.)
# [1] = three-day L1210 cell growth inhibition assay
# [2] = three-day L1210 cell growth inhibition, 37° C., first ID50/ID90 column pair of Table 1
# [3] = three-day L1210 cell growth inhibition, 37° C., second ID50/ID90 column pair of Table 1
Compound,growth of L1210 mouse leukemia cells in vitro,ID50 [1] [ng/mL],ID50 [2] [ng/mL],ID90 [2] [ng/mL],ID50 [3] [ng/mL],ID90 [3] [ng/mL]
3-hydroxydecanoyl-L-Gln-L-Gln-L-Gln-L-Gln-didemnin B [Didemnin Y],inhibit the growth,6.4,6.4,21,4.8,20
"CC[C@H](C)[C@H]1NC(=O)[C@@H](NC(=O)[C@@H](CC(C)C)NC)[C@@H](C)OC(=O)[C@H](Cc2ccc(OC)cc2)N(C)C(=O)[C@@H]2CCCN2C(=O)[C@H](CC(C)C)NC(=O)[C@@H](C)C(=O)[C@H](C(C)C)OC(=O)C[C@@H]1O [Didemnin A, didemnin A] (H-[dNMeL]T[X1]LP[NMeY](Me); ester 2-C)",–,–,7.8,58,–,–
"CC[C@H](C)[C@H]1NC(=O)[C@@H](NC(=O)[C@@H](CC(C)C)N(C)C(=O)[C@@H]2CCCN2C(=O)C(C)O)[C@@H](C)OC(=O)[C@H](Cc2ccc(OC)cc2)N(C)C(=O)[C@@H]2CCCN2C(=O)[C@H](CC(C)C)NC(=O)[C@@H](C)C(=O)[C@H](C(C)C)OC(=O)C[C@@H]1O (stereo partly drawn) [Didemnin B, didemnin B]",–,–,–,–,3.8,15
(R)-3-hydroxydecanoyl-L-Gln-L-Gln-L-Gln-didemnin B [Didemnin X],inhibit the growth,4,4,17,4.8,17
didemnin D,–,–,3.4,15,4.2,16
didemnin E,–,–,1.1,7.6,0.8,5.6
